Results from patent US7585859B2, “PDE4B inhibitors and uses therefor” (Plexxikon, Inc., priority 2004, dated 2009).

Assays:
Assay type in all cases: biochemical
[1] = biological target: T1, PDE4B: The catalytic domain of human PDE4B from S152-S528 (Homo sapiens, UniProt Q07343); assay: PDE4 IC50 determination by Scintillation Proximity Assay, PDE4B; conditions: Table 1B, Formula I compounds; read-out: IC50 PDE4B
T1 construct: His6 (N); thrombin cleavage site (N); made in house; host or cells: E. coli
T1 sequence (Q07343 with tags, fused parts or gaps): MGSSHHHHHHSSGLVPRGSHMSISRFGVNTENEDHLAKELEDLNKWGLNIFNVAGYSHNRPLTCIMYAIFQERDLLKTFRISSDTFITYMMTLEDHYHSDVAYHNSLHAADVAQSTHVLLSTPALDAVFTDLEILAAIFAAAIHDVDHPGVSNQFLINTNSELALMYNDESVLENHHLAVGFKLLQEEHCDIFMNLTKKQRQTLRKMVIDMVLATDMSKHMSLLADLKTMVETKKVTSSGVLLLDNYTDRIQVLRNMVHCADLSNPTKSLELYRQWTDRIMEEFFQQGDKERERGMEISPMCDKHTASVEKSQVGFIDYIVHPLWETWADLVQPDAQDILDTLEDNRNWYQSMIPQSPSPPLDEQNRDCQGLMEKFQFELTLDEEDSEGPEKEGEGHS
In short: (§1)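 Enzyme was added to compound and [^3H]cAMP, then incubated 30 min at 30° (PDE4B 80 ng/ml; PDE4D 4 ng/ml). Product [^3H]AMP bound to SPA beads and was counted. IC50 was fitted by non-linear regression against DMSO and roflumilast controls.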

PDE4D = biological target: T2, PDE4D (Homo sapiens, UniProt Q08499); assay: PDE4 IC50 determination by Scintillation Proximity Assay, PDE4D; conditions: Table 1B, Formula I compounds; read-out: IC50 PDE4D
T2 construct: PDE4D: The catalytic domain of human PDE4B from S3 16-V692; His6 (N); thrombin cleavage site (N); made in house; host or cells: E. coli
T2 sequence (Q08499 380-756): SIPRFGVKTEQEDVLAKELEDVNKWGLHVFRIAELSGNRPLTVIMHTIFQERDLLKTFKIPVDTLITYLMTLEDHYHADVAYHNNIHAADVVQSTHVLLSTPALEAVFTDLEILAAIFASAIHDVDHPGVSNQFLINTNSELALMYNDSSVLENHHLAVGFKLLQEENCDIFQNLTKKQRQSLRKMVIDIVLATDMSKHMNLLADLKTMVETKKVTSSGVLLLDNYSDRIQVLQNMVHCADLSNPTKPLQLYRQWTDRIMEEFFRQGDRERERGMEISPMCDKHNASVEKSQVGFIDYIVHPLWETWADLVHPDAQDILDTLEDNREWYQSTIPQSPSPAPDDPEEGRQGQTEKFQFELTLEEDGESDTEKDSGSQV
In short: as §1

[2] = biological target: T3, full-length human PDE4B2 isozyme (Homo sapiens, UniProt Q07343); assay: PDE4 IC50 determination by Scintillation Proximity Assay, PDE4B2; conditions: Table 1B, Formula I compounds; read-out: IC50 PDE4B2
T3 construct: The full-length human PDE4B2 isozyme; His6 (N); TEV cleavage site (N); made in house; host or cells: baculovirus infected insect cells (unpurified lysate)
T3 sequence (Q07343 1-564 isoform Q07343-2): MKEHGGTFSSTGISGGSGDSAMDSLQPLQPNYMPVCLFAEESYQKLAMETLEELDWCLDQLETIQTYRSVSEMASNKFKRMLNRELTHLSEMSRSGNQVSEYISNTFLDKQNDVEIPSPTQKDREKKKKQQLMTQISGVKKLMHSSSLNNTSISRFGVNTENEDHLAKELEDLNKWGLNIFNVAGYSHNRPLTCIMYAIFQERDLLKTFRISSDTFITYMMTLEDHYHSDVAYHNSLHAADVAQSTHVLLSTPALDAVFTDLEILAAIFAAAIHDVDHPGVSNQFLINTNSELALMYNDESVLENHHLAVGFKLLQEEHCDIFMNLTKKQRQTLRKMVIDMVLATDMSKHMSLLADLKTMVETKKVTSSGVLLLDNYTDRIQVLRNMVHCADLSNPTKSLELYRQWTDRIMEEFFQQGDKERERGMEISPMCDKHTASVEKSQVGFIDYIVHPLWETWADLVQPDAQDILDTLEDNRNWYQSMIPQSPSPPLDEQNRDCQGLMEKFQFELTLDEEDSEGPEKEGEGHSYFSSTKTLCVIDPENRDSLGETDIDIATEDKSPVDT
Experimental: (§2) IC50s were determined by Scintillation Proximity Assay (SPA). The principle of the assay is based on the fact that cAMP, the PDE4 substrate, binds weakly to Yittrium Silicate SPA beads, whereas AMP, the product of PDE4 hydrolysis binds strongly. Thus, the extent of PDE4 hydrolysis of a sample of [^3H]cAMP can be measured because only the
(§3) [^3H]AMP produced by PDE4 hydrolysis will bind to the SPA beads and produce a scintillation signal.
(§4) PDE4 enzymes used for IC50 assays were:
PDE4B2: The full-length human PDE4B2 isozyme with an N-terminal His6 tag (SEQ ID NO: 18) and TEV cleavage site expressed in baculovirus infected insect cells. The enzyme was not purified from the cell lysates, so enzyme concentrations were not determined. Enzyme was stored in 50% glycerol at −20°.
(§5) Compounds tested (see Tables 3B, 4B and 5A for compounds and results) were 3-fold serially diluted 11 times in DMSO from a starting concentration of 4 mM or 40 μM, depending on compound potency. 1 μl of each dilution was transferred into duplicate wells of a white polystyrene 384-well assay plate (Coming #3705). In addition to the compound dilutions, each assay plate contained control wells with 1 μl of DMSO (to define 0% enzyme inhibition) or 1 μl of 200 μM roflumilast (to define 100% enzyme inhibition). Using a Beckman FX robot, 10 μl of [^3H] cAMP (Amersham TRK559) at 2 mCi/ml in assay buffer (50 mM Tris, pH 7.5; 8.3 mM MgCl; 1.7 mM EGTA; 0.01% BSA) was transferred to each assay well. Next, 10 μl of PDE4 enzyme in assay buffer was added and the plates were shaken for 30 s. at 1000 rpm to start the cAMP hydrolysis reaction. The concentrations of enzyme used were: PDE4B, 80 ng/ml; PDE4D, 4 ng/ml; PDE4B2, 2.5 μl of 50% glycerol stock/ml; PDE4D5 0.083 μl of 50% glycerol stock/ml. Assay plates were covered and incubated for 30 min. at 30°. Reactions were stopped by robotic addition of 10 μl of 5 mg/ml SPA beads (Amersham RPNQ0013) in 18 mM ZnSO4. The assay plates were covered with clear plastic film, centrifuged for 1 min. at 1000 RPM to settle the SPA beads, and counted using a Wallac TriLux scintillation counter. IC50's were calculated from the raw assay data by non-linear regression curve fitting using the Assay Explorer software package from MDL.

[3] = biological target: T4, full-length human PDE4D5 isozyme (Homo sapiens, UniProt Q08499); assay: PDE4 IC50 determination by Scintillation Proximity Assay, PDE4D5; conditions: Table 1B, Formula I compounds; read-out: IC50 PDE4D5
T4 construct: The full-length human PDE4D5 isozyme; His6 (N); TEV cleavage site (N); made in house; host or cells: baculovirus infected insect cells (unpurified lysate)
T4 sequence (Q08499 1-745 isoform Q08499-6): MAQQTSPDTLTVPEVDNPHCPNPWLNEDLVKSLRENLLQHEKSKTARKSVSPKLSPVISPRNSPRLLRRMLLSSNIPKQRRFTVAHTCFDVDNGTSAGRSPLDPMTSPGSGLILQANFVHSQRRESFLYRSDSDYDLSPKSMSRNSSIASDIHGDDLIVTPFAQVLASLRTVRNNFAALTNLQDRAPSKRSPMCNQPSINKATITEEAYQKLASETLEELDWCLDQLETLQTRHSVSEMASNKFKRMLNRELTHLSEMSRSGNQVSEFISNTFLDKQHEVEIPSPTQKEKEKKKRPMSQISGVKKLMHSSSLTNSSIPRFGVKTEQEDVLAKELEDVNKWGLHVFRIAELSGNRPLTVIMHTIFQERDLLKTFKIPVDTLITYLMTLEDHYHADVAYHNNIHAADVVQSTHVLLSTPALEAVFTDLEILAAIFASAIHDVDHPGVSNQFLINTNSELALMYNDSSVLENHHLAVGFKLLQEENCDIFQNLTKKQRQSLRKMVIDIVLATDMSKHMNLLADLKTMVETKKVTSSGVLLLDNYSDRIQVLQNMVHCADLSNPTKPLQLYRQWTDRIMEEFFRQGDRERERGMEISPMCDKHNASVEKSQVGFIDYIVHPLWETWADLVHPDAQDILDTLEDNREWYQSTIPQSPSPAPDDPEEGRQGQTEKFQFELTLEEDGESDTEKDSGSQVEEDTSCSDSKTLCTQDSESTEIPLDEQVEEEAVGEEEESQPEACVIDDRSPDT
Experimental: as §2, §3, §4
PDE4D5: The full-length human PDE4D5 isozyme with an N-terminal His6 tag (SEQ ID NO: 18) and TEV cleavage site expressed in baculovirus infected insect cells. The enzyme was not purified from the cell lysates, so enzyme concentrations were not determined. Enzyme was stored in 50% glycerol at −20°.
as §5

Row | SMILES | IC50 [1] | IC50 (PDE4D) | IC50 [2] | IC50 [3]
1 | CCOC(=O)c1c(Nc2ccccc2OC)sc(C(=O)c2ccc(Br)cc2)c1N [Compound 1-1, 4-Amino-5-(4-bromo-benzoyl)-2-(2-methoxy-phenylamino)-thiophene-3-carboxylic acid ethyl ester] | < 10 µM | < 10 µM | < 10 µM | < 10 µM
2 | COc1ccccc1Nc1sc(C(=O)c2ccc(C)cc2)c(N)c1C#N [Compound 1-2, 4-Amino-2-(2-methoxy-phenylamino)-5-(4-methyl-benzoyl)-thiophene-3-carbonitrile] | < 10 µM | < 10 µM | < 10 µM | < 10 µM
3 | NC(=O)c1c(Nc2ccccc2)sc(C(=O)c2ccccc2)c1N [Compound 1-12, 4-Amino-5-benzoyl-2-phenylamino-thiophene-3-carboxylic acid amide] | > 10 µM | > 10 µM | > 10 µM | > 10 µM
4 | N#Cc1c(Nc2ccccc2)sc(C(=O)c2ccccc2)c1N [Compound 1-16, 4-Amino-5-benzoyl-2-phenylamino-thiophene-3-carbonitrile] | < 10 µM | > 10 µM | > 10 µM | > 10 µM
5 | N#Cc1c(Nc2ccc(Cl)cc2)sc(C(=O)c2sccc2Cl)c1N [Compound 1-17, 4-Amino-2-(4-chloro-phenylamino)-5-(3-chloro-thiophene-2-carbonyl)-thiophene-3-carbonitrile] | < 10 µM | < 10 µM | < 10 µM | < 10 µM
6 | N#Cc1c(Nc2ccc(Cl)cc2)sc(C(=O)c2ccc(Cl)cc2Cl)c1N [Compound 1-18, 4-Amino-2-(4-chloro-phenylamino)-5-(2,4-dichloro-benzoyl)-thiophene-3-carbonitrile] | < 10 µM | < 10 µM | < 10 µM | < 10 µM
7 | CCOC(=O)c1c(Nc2ccccc2OC)sc(C(=O)c2ccccc2)c1N [Compound 1-21, 4-Amino-5-benzoyl-2-(2-methoxy-phenylamino)-thiophene-3-carboxylic acid ethyl ester] | < 10 µM | < 10 µM | < 10 µM | < 10 µM
8 | CCOC(=O)c1c(Nc2ccccc2F)sc(C(=O)c2ccc(Cl)cc2)c1N [Compound 1-22, 4-Amino-5-(4-chloro-benzoyl)-2-(2-fluoro-phenylamino)-thiophene-3-carboxylic acid ethyl ester] | < 10 µM | < 10 µM | < 10 µM | < 10 µM
9 | COc1ccc(C(=O)c2sc(NC3CCCC3)c(C#N)c2N)c(OC)c1 [Compound 1-43, 4-Amino-2-cyclopentylamino-5-(2,4-dimethoxy-benzoyl)-thiophene-3-carbonitrile] | < 10 µM | < 10 µM | < 10 µM | < 10 µM
10 | COc1ccc(Nc2sc(C(=O)c3cnn(-c4ccccc4)c3C)c(N)c2C#N)cc1 [Compound 1-50, 4-Amino-2-(4-methoxy-phenylamino)-5-(5-methyl-1-phenyl-1H-pyrazole-4-carbonyl)-thiophene-3-carbonitrile] | < 10 µM | < 10 µM | < 10 µM | < 10 µM
11 | Cc1c(C(=O)c2sc(NC3CCCC3)c(C#N)c2N)cnn1-c1ccccc1 [Compound 1-55, 4-Amino-2-cyclopentylamino-5-(5-methyl-1-phenyl-1H-pyrazole-4-carbonyl)-thiophene-3-carbonitrile] | < 10 µM | < 10 µM | < 10 µM | < 10 µM
12 | Cc1c(C(=O)c2sc(NCC3CCCO3)c(C#N)c2N)cnn1-c1ccccc1 (centres unmarked) [Compound 1-57, 4-Amino-5-(5-methyl-1-phenyl-1H-pyrazole-4-carbonyl)-2-[(tetrahydro-furan-2-ylmethyl)-amino]-thiophene-3-carbonitrile] | > 10 µM | < 10 µM | > 10 µM | > 10 µM
13 | Cc1onc(-c2ccccc2)c1C(=O)c1sc(NC2CCCC2)c(C#N)c1N [Compound 1-61, 4-Amino-2-cyclopentylamino-5-(5-methyl-3-phenyl-isoxazole-4-carbonyl)-thiophene-3-carbonitrile] | < 10 µM | < 10 µM | < 10 µM | < 10 µM
14 | N#Cc1c(NCCN2CCCCC2)sc(C(=O)c2cc(-c3ccccc3)no2)c1N [Compound 1-62, 4-Amino-5-(3-phenyl-isoxazole-5-carbonyl)-2-(2-piperidin-1-yl-ethylamino)-thiophene-3-carbonitrile] | > 10 µM | > 10 µM | > 10 µM | > 10 µM
15 | N#Cc1c(NC2CCCC2)sc(C(=O)c2ccccn2)c1N [Compound 1-66, 4-Amino-2-cyclopentylamino-5-(pyridine-2-carbonyl)-thiophene-3-carbontrile] | < 10 µM | < 10 µM | < 10 µM | < 10 µM
16 | N#Cc1c(Nc2ccccc2F)sc(C(=O)c2ccc(-c3ccccn3)s2)c1N [Compound 1-67, 4-Amino-2-(2-fluoro-phenylamino)-5-(5-pyridin-2-yl-thiophene-2-carbonyl)-thiophene-3-carbonitrile] | < 10 µM | < 10 µM | < 10 µM | < 10 µM
17 | COc1ccc(Nc2sc(C(=O)c3ccc(-c4ccccn4)s3)c(N)c2C#N)cc1 [Compound 1-68, 4-Amino-2-(4-methoxy-phenylamino)-5-(5-pyridin-2-yl-thiophene-2-carbonyl)-thiophene-3-carbonitrile] | < 10 µM | < 10 µM | > 10 µM | > 10 µM
18 | N#Cc1cccc(Nc2sc(C(=O)c3ccc(-c4ccccn4)s3)c(N)c2C#N)c1 [Compound 1-69, 4-Amino-2-(3-cyano-phenylamino)-5-(5-pyridin-2-yl-thiophene-2-carbonyl)-thiophene-3-carbonitrile] | < 10 µM | < 10 µM | < 10 µM | < 10 µM
19 | N#Cc1c(Nc2ccc3c(c2)CCC3)sc(C(=O)c2ccc(-c3ccccn3)s2)c1N [Compound 1-71, 4-Amino-2-(indan-5-ylamino)-5-(5-pyridin-2-yl-thiophene-2-carbonyl)-thiophene-3-carbonitrile] | < 10 µM | < 10 µM | < 10 µM | > 10 µM
20 | COC(=O)C(CCSC)Nc1sc(C(=O)c2ccc(-c3ccccn3)s2)c(N)c1C#N (centres unmarked) [Compound 1-74, 2-[4-Amino-3-cyano-5-(5-pyridin-2-yl-thiophene-2-carbonyl)-thiophen-2-ylamino]-4-methylsulfanyl-butyric acid methyl ester] | < 10 µM | < 10 µM | < 10 µM | < 10 µM
21 | Cc1c(Nc2ccc(Oc3ccccc3)cc2)sc(C(=O)c2ccccc2)c1N [Compound 1-239, [3-Amino-4-methyl-5-(4-phenoxy-phenylamino)-thiophen-2-yl]-phenyl-methanone] | < 10 µM | – | > 10 µM | > 10 µM
22 | CCc1c(Nc2ccc(Oc3ccccc3)cc2)sc(C(=O)c2ccccc2)c1N [Compound 1-243, [3-Amino-5-ethyl-5-(4-phenoxy-phenylamino)-thiophen-2-yl]-phenyl-methanone] | < 10 µM | – | < 10 µM | > 10 µM
